Measured values reported in PubChem BioAssay AID248 (DTP/NCI, 2004).
Inconclusive results and toxic doses are left out. Rule as the data show it: active = T/C of 150% or more; inactive = T/C below 125%.

System: L1210 leukemia ip in BDF1 mice, survival T/C
Assay: NCI In Vivo Anticancer Drug Screen. Data for tumor model L1210 Leukemia (intraperitoneal) in B6D2F1 (BDF1) mice
Conditions: endpoint: mean survival time, higher = longer survival
Procedure, shortened: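 Ratio derived from survival: compound-dosed mice over vehicle-dosed mice, all bearing a transplantable tumor.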

[1] = dose: 100.0 mg/kg/injection, schedule: Q04DX003 (ip), vehicle: saline with Tween-80
[2] = dose: 200.0 mg/kg/injection, schedule: Q04DX003 (ip), vehicle: saline with Tween-80
[3] = dose: 100.0 mg/kg/injection, schedule: Q04DX002 (ip), vehicle: saline
[4] = dose: 200.0 mg/kg/injection, schedule: Q04DX002 (ip), vehicle: saline
[5] = dose: 100.0 mg/kg/injection, schedule: Q01DX009 (ip), vehicle: Klucel (hydroxypropylcellulose) (HPC)
[6] = dose: 200.0 mg/kg/injection, schedule: Q01DX009 (ip), vehicle: Klucel (hydroxypropylcellulose) (HPC)
[7] = dose: 400.0 mg/kg/injection, schedule: Q01DX009 (ip), vehicle: Klucel (hydroxypropylcellulose) (HPC)
[8] = dose: 100.0 mg/kg/injection, schedule: Q04DX002 (ip), vehicle: Klucel (hydroxypropylcellulose) (HPC)
[9] = dose: 200.0 mg/kg/injection, schedule: Q04DX002 (ip), vehicle: Klucel (hydroxypropylcellulose) (HPC)
[10] = dose: 400.0 mg/kg/injection, schedule: Q04DX002 (ip), vehicle: Klucel (hydroxypropylcellulose) (HPC)
[11] = dose: 50.0 mg/kg/injection, schedule: Q04DX003 (ip), vehicle: saline
[12] = dose: 100.0 mg/kg/injection, schedule: Q04DX003 (ip), vehicle: saline
[13] = dose: 100.0 mg/kg/injection, schedule: Q04DX003 (ip), vehicle: Klucel (hydroxypropylcellulose) (HPC)
[14] = dose: 200.0 mg/kg/injection, schedule: Q04DX003 (ip), vehicle: Klucel (hydroxypropylcellulose) (HPC)
[15] = dose: 400.0 mg/kg/injection, schedule: Q04DX003 (ip), vehicle: Klucel (hydroxypropylcellulose) (HPC)

Measured: T/C

Nc1ccc(S(=O)(=O)c2ccc(NCC(=O)O)cc2)cc1
inactive: dose: 50.0 mg/kg/injection, schedule: Q01DX009 (ip), vehicle: saline with Tween-80 105 % of control | dose: 100.0 mg/kg/injection, schedule: Q01DX009 (ip), vehicle: saline with Tween-80 101 % of control | [1] 89 % of control | dose: 200.0 mg/kg/injection, schedule: Q01DX009 (ip), vehicle: saline with Tween-80 92 % of control | [2] 92 % of control

O=C(/C=C/c1cccc(Cl)c1)c1ccccc1
inactive: dose: 50.0 mg/kg/injection, schedule: Q04DX002 (ip), vehicle: saline with Tween-80 108 % of control | dose: 100.0 mg/kg/injection, schedule: Q04DX002 (ip), vehicle: saline with Tween-80 115 % of control | dose: 200.0 mg/kg/injection, schedule: Q04DX002 (ip), vehicle: saline with Tween-80 97 % of control

CC(=O)OC/N=[N+](/C)[O-]
inactive: dose: 2.0 mg/kg/injection, schedule: Q01DX Z (ip), vehicle: saline 98 % of control | dose: 4.0 mg/kg/injection, schedule: Q01DX Z (ip), vehicle: saline 110 % of control | dose: 6.0 mg/kg/injection, schedule: Q01DX Z (ip), vehicle: saline 97 % of control | dose: 8.0 mg/kg/injection, schedule: Q01DX Z (ip), vehicle: saline 104 % of control | dose: 12.5 mg/kg/injection, schedule: Q01DX Z (ip), vehicle: saline 91 % of control

CCC1(c2ccccc2)OC1C(=O)OCC(C)C (configuration not stated)
inactive: [3] 112 % of control | [4] 97 % of control | dose: 400.0 mg/kg/injection, schedule: Q04DX002 (ip), vehicle: saline 101 % of control

c1ccc([S+]([CH2][Hg][CH2][S+](c2ccccc2)c2ccccc2)c2ccccc2)cc1
inactive: dose: 5.0 mg/kg/injection, schedule: Q01DX001 (ip), vehicle: saline 92 % of control | dose: 10.0 mg/kg/injection, schedule: Q01DX001 (ip), vehicle: saline 109 % of control | dose: 20.0 mg/kg/injection, schedule: Q01DX001 (ip), vehicle: saline 119 % of control

C=Cc1c2[n-]c(c1C)/C=c1\[n-]/c(c(C)c1C=C)=C\c1[n-]c(c(CCC(=O)O)c1C)/C=c1\[n-]/c(c(C)c1CCC(=O)O)=C\2.[Co]
inactive: dose: 100.0 mg/kg/injection, schedule: Q01DX009 (ip), vehicle: dextrose 88 % of control | dose: 100.0 mg/kg/injection, schedule: Q04DX003 (ip), vehicle: dextrose 94 % of control | dose: 200.0 mg/kg/injection, schedule: Q01DX009 (ip), vehicle: dextrose 94 % of control | dose: 200.0 mg/kg/injection, schedule: Q04DX003 (ip), vehicle: dextrose 104 % of control | dose: 400.0 mg/kg/injection, schedule: Q04DX003 (ip), vehicle: dextrose 94 % of control | dose: 1:1.0 dilution, schedule: Q04DX002 (ip), vehicle: saline 104 % of control | dose: 1:2.0 dilution, schedule: Q04DX002 (ip), vehicle: saline 104 % of control | dose: 1:4.0 dilution, schedule: Q04DX002 (ip), vehicle: saline 86 % of control

COc1ccc(NC(=O)Oc2ccc(NC(C)=O)cc2)c(OC)c1
inactive: [5] 95 % of control | [6] 97 % of control | [7] 92 % of control

CCCCNC(=O)NCCN(C)c1ccccc1
inactive: [8] 94 % of control | [9] 97 % of control | [10] 102 % of control

Nc1nc2ncc(CN(N=O)c3ccc(C(=O)NC(CCC(=O)O)C(=O)O)cc3)nc2c(=O)[nH]1 (configuration not stated)
inactive: dose: 0.62 mg/kg/injection, schedule: Q01DX009 (ip), vehicle: water 98 % of control | dose: 1.25 mg/kg/injection, schedule: Q01DX009 (ip), vehicle: water 100 % of control | dose: 2.5 mg/kg/injection, schedule: Q01DX009 (ip), vehicle: water 98 % of control | dose: 5.0 mg/kg/injection, schedule: Q01DX009 (ip), vehicle: water 96 % of control | dose: 10.0 mg/kg/injection, schedule: Q01DX009 (ip), vehicle: water 98 % of control

CC(=O)Nc1ccc(C(=O)O)c(O)c1
inactive: [11] 113 % of control | [12] 108 % of control | dose: 200.0 mg/kg/injection, schedule: Q04DX003 (ip), vehicle: saline 105 % of control

CCOC(=O)c1ccc(NC(=O)CC(C)=O)cc1
inactive: [1] 103 % of control | [2] 101 % of control | dose: 400.0 mg/kg/injection, schedule: Q04DX003 (ip), vehicle: saline with Tween-80 97 % of control

COc1ccc([N+](=O)[O-])cc1NC(=O)c1ccc2c(c1)C(=O)OC2=O
inactive: dose: 6.25 mg/kg/injection, schedule: Q01DX009 (ip), vehicle: gum acacia 93 % of control | dose: 12.5 mg/kg/injection, schedule: Q01DX009 (ip), vehicle: gum acacia 88 % of control | dose: 25.0 mg/kg/injection, schedule: Q01DX009 (ip), vehicle: gum acacia 87 % of control | dose: 50.0 mg/kg/injection, schedule: Q01DX009 (ip), vehicle: gum acacia 86 % of control | dose: 200.0 mg/kg/injection, schedule: Q01DX009 (ip), vehicle: gum acacia 88 % of control

COc1cccc(C=O)c1[N+](=O)[O-]
inactive: [8] 104 % of control | [9] 108 % of control | [10] 97 % of control

O=C1CNC(c2ccccc2)c2cc(Cl)ccc2N1 (configuration not stated)
inactive: dose: 25.0 mg/kg/injection, schedule: Q01DX009 (ip), vehicle: Klucel (hydroxypropylcellulose) (HPC) 101 % of control | [5] 92 % of control | [6] 87 % of control

CC(C)(C)CC(C)(C)c1ccc(OCCOc2ccc(NS(=O)(=O)c3ccc(N)c([N+](=O)[O-])c3)cc2)cc1
inactive: [1] 94 % of control | [2] 92 % of control

OCCCNc1nc2ccc(Cl)cc2c2ccccc12
inactive: [13] 116 % of control | [14] 107 % of control | [15] 108 % of control

CN1CCC2=C(C1)C(c1ccccc1)c1ccccc12 (configuration not stated)
inactive: dose: 25.0 mg/kg/injection, schedule: Q01DX009 (ip), vehicle: saline 90 % of control | dose: 50.0 mg/kg/injection, schedule: Q01DX009 (ip), vehicle: saline 95 % of control | [11] 106 % of control | dose: 100.0 mg/kg/injection, schedule: Q01DX009 (ip), vehicle: saline 102 % of control | [12] 106 % of control

CN1CCC(=C(C#N)C#N)CC1
inactive: [12] 91 % of control

CC(Cc1ccccc1)NC(=O)/C=C/C(=O)O (configuration not stated)
inactive: [5] 96 % of control | [13] 103 % of control | [6] 106 % of control | [14] 90 % of control | [7] 95 % of control | [15] 101 % of control

CCC(C)NC1=CC(=O)c2ccccc2C1=O (configuration not stated)
inactive: dose: 100.0 mg/kg/injection, schedule: Q01DX001 (ip), vehicle: saline with Tween-80 95 % of control | dose: 200.0 mg/kg/injection, schedule: Q01DX001 (ip), vehicle: saline with Tween-80 94 % of control

O=C1CCCC(=O)CCC1
inactive: dose: 50.0 mg/kg/injection, schedule: Q04DX002 (ip), vehicle: saline 93 % of control | [3] 93 % of control | [4] 104 % of control
